Test results published in US11318113B2, “Compounds for the treatment of diseases linked to mitochondrial reactive oxygen species (ROS) production” (OP2 DRUGS, priority 2015, dated 2022).

Key:
[1] = test system: normoxic, chronic hypoxic and monocrotaline-treated rats; experiment: Pulmonary hypertension rat models (chronic hypoxia, monocrotaline); type: in vivo
Protocol: Male Wistar rats (300-400 g) were separated into 3 groups and used 4 weeks later: • the first group (control or normoxic rats—N rats) was housed in ambient room air; • the second group (chronic hypoxic rats—CH rats) was exposed to chronic hypoxia for 3 weeks in a hypobaric chamber (50 kPa), and • the third group (MCT rats) was injected with a single intraperitoneal dose of monocrotaline at a dose of 60 mg/kg. MCT (Sigma, St Quentin Fallavier, France) was dissolved in an equal volume of HCl ([…]) and NaOH ([…]).
In each group, some animals were treated with AOL (Sulfarlem, EG Labo Eurogenerics. Crushed tablets mixed with food, fed ad libitum) and some other animals were untreated. Eaten food was weighed every day to estimate the AOL dose administered. 10 mg/kg/day was thus administered during the 3 weeks of experiment for the second and third groups.
Pulmonary hypertension was assessed by measuring both the mean pulmonary arterial pressure (mPAP) and right ventricle hypertrophy. To measure PAP, N, CH and MCT rats were anesthetized with pentobarbital sodium (Centravet) by intraperitoneal injection (60 mg/kg) and mPAP was measured, in closed-chest rats, through a catheter inserted in the right jugular vein, then through the right atria and the right ventricle into the pulmonary artery, and attached to a Baxter Uniflow gauge pressure transducer.
Right ventricle hypertrophy was estimated by the ratio of right ventricle (RV) to left ventricle plus septum (LV+S) weight (Fulton index).
Pulmonary arteries (PA) remodeling was assessed by measuring the percentage of the PA medial thickness from sections of paraffin-embedded lung. Lung sections were first stained with hematoxylin and eosin (VWR) according to common histological procedure.

[2] = test system: isolated mitochondria from rat heart; experiment: Mitochondrial respiration / oxidative phosphorylation (oxygraph); type: biochemical; details: AOL 5 to 80 μM
Protocol: Male Wistar rats (250-325 g; obtained from Janvier Labs, Le Genest-Saint-Isle, France) were killed by stunning and cervical dislocation, and the heart was quickly removed and washed in cold isolation medium containing 100 mM sucrose, 180 mM KCl, 50 mM Tris, 5 mM MgCl2, 10 mM EDTA, and 0.1% (w/v) deffated BSA (pH 7.2).
Isolation of heart mitochondria was performed in a cold chamber. Before homogenization, hearts (about 1.5 g) were minced with scissors and treated for 5 min in 5 mL of the same medium supplemented with protease (2 mg of bacterial proteinase type XXIV per mL of isolation buffer) with stirring. The tissue suspension was poured into a 50-ml glass Potter homogenizer, diluted with 20 mL of isolation buffer, then homogenized for 3 min using a motorized Teflon pestle. The homogenate was filtered through bolting cloth (Sefar Nitex) to remove debris, and centrifuged at 8,000 g for 10 minutes. The resulting pellet was rinsed with 5 mL of isolation buffer, resuspended in 25 mL of the same buffer, then subjected to low speed centrifugation (400 g) for 8 min. The resulting supernatant was centrifuged twice at 7,000 g for 15 min to yield a washed mitochondrial pellet that was gently resuspended in 150 μL of isolation buffer. Protein concentration was determined by the Bradford method (Sigma, kit # B6916) using BSA as standard. Mitochondria were kept on ice at a final concentration of 40-50 mg/mL for less than 5 h.
Oxygen consumption rates of heart mitochondria (0.1 mg/mL), incubated in the absence or presence of AOL at increasing doses (from 0 to 80 μM final concentration), were recorded polarographically under constant stirring at 25° C. using a high resolution oximeter (Oxygraph-2K, Oroboros Instruments, Austria). The respiration medium consisted in 140 mM sucrose, 100 mM KCl, 1 mM EGTA, 20 mM MgCl2, 10 mM KH2PO4, and 1 g/L (w/v) BSA essentially fatty acid free (pH 7.2).
This has been carried out by using the now classical oxygraph method. Mitochondria were first incubated with various AOL concentrations (5 to 80 μM) then respiratory substrate was added (substrate state, black curve), followed by a saturating ADP concentration to get the maximal oxidative phosphorylation rate (grey curve), and finally the addition of atractyloside (ATR) which inhibits the ADP/ATP translocator and gives the mitochondrial leak rate under non-phosphorylating conditions (FIG. 1A). The other panels of FIG. 1B-D presents the results obtained with different respiratory substrate combinations: glutamate+malate which feed electrons to complex I, succinate (+rotenone) for complex II and glutamate+malate+succinate to feed electrons to both complexes. […]

[3] = test system: outer nuclear layer (ONL) of the retina; experiment: Progressive light-induced retinal degeneration, retina histology; type: in vivo, rat; details: 6 mg/kg/day, three times a day, 7 days
Protocol: Rats bred under cyclic low-intensity lighting were transferred to cyclic high-intensity lighting for one week and divided into 3 groups (non-treated animals, vehicle-treated animals and AOL-treated animals). Treated animals received injections of vehicle or AOL at a dose of 6 mg/kg/day, three times a day for the 7 days of the transfer (30 minutes before light-ON; at 01.00 pm; at 09.00 pm). After one week, animals were transferred in the dark (D0).
A control group (“untransferred”) was not transferred to cyclic high-intensity lighting but received the same treatment as described above: injections of vehicle or AOL three times a day for 7 days, followed by a transfer in the dark (D0).
Animals were then sacrificed for histological analysis.

[4] = test system: NAD(P)H oxidase; experiment: NAD(P)H oxidase ROS/H2O2 production control test without mitochondria; type: biochemical; details: no mitochondria; NAD(P)H oxidase + NADH; results not shown

With `COc1ccc(-c2cc(=S)ss2)cc1` [AOL, 5-(4-methoxyphenyl)-3H-1,2-dithiole-3-thione] the “reduction of pulmonary arteries remodeling (printed: pulmonary arteries diameter)” value ([1]; CH rats, oral 10 mg/kg/day) was ~30%, the “mean pulmonary arterial pressure (mPAP)” value ([1]; CH rats, oral 10 mg/kg/day, 3 weeks) was “even more significantly” and the “mean pulmonary arterial pressure (mPAP)” value ([1]; MCT rats, oral 10 mg/kg/day, 3 weeks) was “decreased”. For the same compound, the “mean pulmonary arterial pressure (mPAP)” value ([1]; normoxic (N) rats) was “no significant effect”, the “Fulton index (right ventricular hypertrophy)” value ([1]; oral 10 mg/kg/day) was “no effect” and the “mitochondrial oxidative phosphorylation and inner membrane integrity (leak rate, after ATR addition)” value [2] was “absence of effect”. For the same compound, the “mitochondrial respiration under the different energetic states” value ([2]; glutamate and malate) was “no statistical differences”, the “mitochondrial respiration under the different energetic states” value ([2]; glutamate, malate and succinate) was “no statistical differences” and the “mitochondrial respiration under the different energetic states” value ([2]; succinate (+rotenone)) was “no statistical differences”. For the same compound, the ONL thickness ([3]; transferred to cyclic high-intensity lighting) was “significant increase”, the ONL thickness ([3]; untransferred control group) was “no effect” and the “ROS/H2O2 production by NAD(P)H oxidase” value [4] was “does not inhibit”.
